Results on 30 compounds are retold here after ChEMBL document CHEMBL3817842, “Structure-based optimization and derivatization of 2-substituted quinolone-based non-nucleoside HCV NS5B inhibitors with submicromolar cellular replicon potency” (Bioorg Med Chem Lett, 2016).

SMILES strings stand for the structures. The source made the active and inactive calls. The rule behind the calls is not given here.

Series [1] deals with Hepatitis C virus. Briefly: Antiviral activity against HCV genotype 2a JFH1 infected in human Huh7.5.1 cells incubated for 72 hrs by GFP based J399EAM HCV reporter assay. The following applies: subtype 2a JFH1, Huh-7, 72 h. It is filed as functional, organism-based, Hepacivirus hominis. Background: A reporter such as luciferase makes a cellular process visible.
A short description of series [2]: Cytotoxicity against human Huh7.5.1 cells infected with human HCV genotype 2a JFH1 incubated for 72 hrs by MTT assay. It is filed as cell-based, Huh-7. The settings on record: Huh7.5.1 cells infected with HCV genotype 2a JFH1.
Series [3] can be described thus: Selectivity index, ratio of CC50 for human Huh7.5.1 cells infected with human HCV genotype 2a JFH1 to EC50 for HCV genotype 2a JFH1 infected in human Huh7.5.1 cells. On the set-up: species or system Huh-7.
Series [4] in a line: Cytotoxicity against human Huh7.5.1 cells infected with human HCV genotype 2a JFH1 assessed as cell viability at 5 uM incubated for 72 hrs by MTT assay. It is filed as cell-based, Huh-7. The settings on record: Huh7.5.1 cells infected with HCV genotype 2a JFH1, read-out: Activity.
Series [5] relates to Hepatitis C virus. Briefly: Antiviral activity against HCV genotype 2a JFH1 infected in human Huh7.5.1 cells at 5 uM incubated for 72 hrs by GFP based J399EAM HCV reporter assay. The following applies: for inhibition at 5 µM: subtype 2a JFH1, Huh-7, 72 h; for inhibition: Hepacivirus hominis, subtype 2a JFH1, Huh-7. It is filed as functional, Hepacivirus hominis.

What is called EC50 is the concentration at which the effect is half-maximal. Usually CC50 stands for the concentration giving 50% cytotoxicity. In the series on Hepatitis C virus [1], `CN1CCN(c2cc3c(cc2F)c(=O)c(C(=O)OCc2ccc(Cl)cc2)cn3Cc2ccc(Cl)cc2)CC1` showed an EC50 of 4.3 µM. The half-maximal cytotoxic concentration (CC50) at 72 h in series [2] was over 40 µM. The “Ratio CC50/EC50” value in series [3] is on record as over 9.3.
As a reminder, the inhibition is how much of the control response was suppressed. Turning to `O=C(Nc1ccc(-n2ccc(=O)c3c(=O)n(Cc4ccc(Cl)cc4)ccc32)cc1)c1ncccc1Cl`, in series [4], the viability at 72 h, 5 µM was found to be 68.6%. For the same compound, in the series with Hepatitis C virus [5], the inhibition at 5 µM amounted to 52.3%.
In the same order, the values of `Nc1ccc(-n2ccc(=O)c3c(=O)n(CC4CCCCC4)ccc32)cc1C(F)(F)F` are 100% and 7.7%.
In the case of `COCc1c(C(=O)OCc2ccc(Cl)cc2)c(=O)c2cc(F)c(N3CCN(Cc4ccccc4)CC3)cc2n1Cc1ccc(Cl)cc1`, the EC50 in the series on Hepatitis C virus [1] was found to be 4.9 µM. The compound also came in with a cytotoxic concentration (CC50) at 72 h in series [2] of over 40 µM. Also, the “Ratio CC50/EC50” value in series [3] is over 8.2.
In turn, `O=C(Nc1ccc(-n2ccc(=O)c3c(=O)n(Cc4ccc(Cl)cc4)ccc32)cc1)c1cc(F)ccc1F` showed a concentration giving a half-maximal response (EC50) with Hepatitis C virus [1] of 4.6 µM. The compound also displayed a half-maximal cytotoxic concentration (CC50) at 72 h in series [2] of 6.4 µM. Further, the “Ratio CC50/EC50” value in series [3] turned out to be 1.4. Besides, the viability at 72 h, 5 µM in series [4] was 46.1%. Besides, in the series on Hepatitis C virus [5], 5 µM produced 95.7% inhibition.
Take `Cc1c(C(=O)OCc2ccc(Cl)cc2)c(=O)c2cc(F)c(N3CCN(C)CC3)cc2n1Cc1ccc(Cl)cc1`: in the series on Hepatitis C virus [1], the concentration giving a half-maximal response (EC50) is 7.2 µM. The CC50 at 72 h in series [2] came to 33.1 µM. Besides, in series [3], the “Ratio CC50/EC50” value is 4.6.
Turning to `Cc1cc(NC(=O)Nc2ccc(F)cc2)ccc1-n1ccc(=O)c2c(=O)n(Cc3ccc(Cl)cc3)ccc21`, the viability at 72 h, 5 µM in series [4] was determined as 70.4%. This compound also showed an inhibition at 5 µM in the series on Hepatitis C virus [5] of 53.1%.
For `Cc1ccc(Cn2ccc3c(c(=O)ccn3-c3ccc(N)c(C(F)(F)F)c3)c2=O)c(C)c1` the same measures were 99.8% and 51.7%.
The compound `COCc1c(C(=O)OCc2ccc(Cl)cc2)c(=O)c2cc(F)c(N3CCN(C)CC3)cc2n1Cc1ccc(Cl)cc1` had an EC50 in the series with Hepatitis C virus [1] of 0.4 µM. Besides, it took 4.3 µM to reach half-maximal cytotoxicity in series [2] (CC50 at 72 h). Moreover, the “Ratio CC50/EC50” value in series [3] is recorded as 10.8.
Take `O=c1ccn(-c2ccc([N+](=O)[O-])cc2C(F)(F)F)c2ccn(Cc3ccc(Cl)cc3)c(=O)c12`: the viability at 72 h, 5 µM in series [4] amounted to 88.2%. The compound also returned an inhibition at 5 µM in the series on Hepatitis C virus [5] of 58.6%.
In the series on Hepatitis C virus [1], `O=c1ccn(-c2ccc([N+](=O)[O-])c(C(F)(F)F)c2)c2ccn(Cc3ccc(Cl)cc3)c(=O)c12` showed an EC50 of 4.8 µM. Half-maximal cytotoxicity in series [2] (CC50 at 72 h) was put at 10.6 µM. For the same compound, the “Ratio CC50/EC50” value in series [3] is 2.2. In series [4], the viability at 72 h, 5 µM came out at 75.6%. Moreover, in the series with Hepatitis C virus [5], 5 µM produced 65.7% inhibition.
With `O=C(Nc1ccc(-n2ccc(=O)c3c(=O)n(Cc4ccc(Cl)cc4)ccc32)c(C(F)(F)F)c1)c1cc(F)ccc1F`, in the series with Hepatitis C virus [1], the 50% effective concentration (EC50) came out at 1.4 µM. The compound also had a CC50 at 72 h in series [2] of 1.5 µM. Further, in series [3], the “Ratio CC50/EC50” value turned out to be 1.1. In series [4], the viability at 72 h, 5 µM was 38.4%. The same compound showed an inhibition at 5 µM in the series with Hepatitis C virus [5] of 98.2%.
With `Nc1ccc(-n2ccc(=O)c3c(=O)n(Cc4ccc(Cl)cc4)ccc32)cc1C(F)(F)F`, a half-maximal effect with Hepatitis C virus [1] (EC50) was put at 2.5 µM. Further, the CC50 at 72 h in series [2] was determined as 17.9 µM. For the same compound, the “Ratio CC50/EC50” value in series [3] is 7.2. The viability at 72 h, 5 µM in series [4] turned out to be 74.3%. In the series on Hepatitis C virus [5], the inhibition at 5 µM came to 78.9%.
For the compound `O=C(Nc1ccc(F)cc1)Nc1ccc(-n2ccc(=O)c3c(=O)n(Cc4ccc(Cl)cc4)ccc32)cc1`, in series [4], the viability at 72 h, 5 µM came out at 98.4%. In the series with Hepatitis C virus [5], the inhibition at 5 µM was 18.8%.
On to `COCc1c(C(=O)OCc2ccc(Cl)cc2)c(=O)c2cc(F)c(OC)cc2n1Cc1ccc(Cl)cc1`, for which the EC50 with Hepatitis C virus [1] was 11.1 µM. The compound also returned a cytotoxic concentration (CC50) at 72 h in series [2] of over 40 µM. In series [3], the “Ratio CC50/EC50” value is over 3.6.
For the compound `Cc1ccc(C(=O)Nc2ccc(-n3ccc(=O)c4c(=O)n(Cc5ccc(Cl)cc5)ccc43)cc2)o1`, in series [4], the viability at 72 h, 5 µM was 88%. In addition, the inhibition at 5 µM with Hepatitis C virus [5] amounted to 42.6%.
In the same order, the values of `Cc1cc(N)ccc1-n1ccc(=O)c2c(=O)n(Cc3ccc(Cl)cc3)ccc21` are 91.6% and 52%.
Compound `CN1CCN(c2c(F)cc3c(=O)c(C(=O)OCc4ccc(Cl)cc4)c(-c4ccc(F)cc4)n(C4CC4)c3c2F)CC1` came in with a concentration giving a half-maximal response (EC50) in the series on Hepatitis C virus [1] of 2.02 µM. The same compound returned a cytotoxic concentration (CC50) at 72 h in series [2] of 13.2 µM. Besides, the “Ratio CC50/EC50” value in series [3] is reported as 5.5.
As to `O=C(Nc1ccc(-n2ccc(=O)c3c(=O)n(Cc4ccc(Cl)cc4)ccc32)cc1)c1ccccn1`, the viability at 72 h, 5 µM in series [4] worked out at 88.7%. In the series on Hepatitis C virus [5], this compound gave an inhibition at 5 µM of 41.7%.
On to `Nc1ccc(-n2ccc(=O)c3c(=O)n(CC4CC=CC4)ccc32)cc1C(F)(F)F`, for which the viability at 72 h, 5 µM in series [4] was 100%. The inhibition entry in the series with Hepatitis C virus [5] was “inactive”.
Compound `Nc1ccc(-n2ccc(=O)c3c(=O)n(Cc4ccc(Cl)cc4)ccc32)cc1Cl` registered an EC50 with Hepatitis C virus [1] of 6.4 µM. In series [2], this compound displayed a CC50 at 72 h of 19.4 µM. For the same compound, in series [3], the “Ratio CC50/EC50” value is reported as 3. Also, in series [4], the viability at 72 h, 5 µM is 79.2%. Moreover, in the series with Hepatitis C virus [5], the inhibition at 5 µM was found to be 68%.
For `Cc1ccc(Cn2ccc3c(c(=O)ccn3-c3ccc(N)c(C(F)(F)F)c3)c2=O)cc1`, the viability at 72 h, 5 µM in series [4] turned out to be 100%. Further, at 5 µM the inhibition with Hepatitis C virus [5] was 38.7%.
In the same order, the values of `Nc1ccc(-n2ccc(=O)c3c(=O)n(Cc4ccc(Cl)cc4)ccc32)c(C(F)(F)F)c1` are 84.8% and 43.8%.
`O=C(Nc1ccc(F)cc1)Nc1ccc(-n2ccc(=O)c3c(=O)n(Cc4ccc(Cl)cc4)ccc32)c(C(F)(F)F)c1`: the viability at 72 h, 5 µM in series [4] was found to be 75.4%. The same compound came in with an inhibition at 5 µM in the series on Hepatitis C virus [5] of 33.4%.
Regarding `CCc1c(C(=O)OCc2ccc(Cl)cc2)c(=O)c2cc(F)c(OC)cc2n1Cc1ccc(Cl)cc1`, the response in the series on Hepatitis C virus [1] was half-maximal at 3.7 µM (EC50). The compound further came in with a CC50 at 72 h in series [2] of 26.8 µM. In series [3], the “Ratio CC50/EC50” value is reported as 7.2.
`N#Cc1ccc(-n2ccc(=O)c3c(=O)n(Cc4ccc(Cl)cc4)ccc32)cc1C(F)(F)F`: the viability at 72 h, 5 µM in series [4] turned out to be 86.4%. In addition, in the series on Hepatitis C virus [5], the inhibition result was “inactive”.
In turn, `COc1cc2c(cc1F)c(=O)c(C(=O)OCc1ccc(Cl)cc1)c(C)n2Cc1ccc(Cl)cc1` showed an EC50 with Hepatitis C virus [1] of 2.4 µM. The CC50 at 72 h in series [2] is over 40 µM. The “Ratio CC50/EC50” value in series [3] is recorded as over 16.7.
`Nc1ccc(-n2ccc(=O)c3c(=O)n(Cc4ccccc4)ccc32)cc1C(F)(F)F`: the viability at 72 h, 5 µM in series [4] came out at 96.8%. In addition, in the series on Hepatitis C virus [5], the inhibition result was “inactive”.
In the case of `Cc1cc(NC(=O)c2ccccc2F)ccc1-n1ccc(=O)c2c(=O)n(Cc3ccc(Cl)cc3)ccc21`, in series [4], the viability at 72 h, 5 µM came to 72.6%. The inhibition at 5 µM in the series on Hepatitis C virus [5] is 55.2%.
As to `Nc1ccc(-n2ccc(=O)c3c(=O)n(Cc4ccc(Cl)cc4)ccc32)cc1`, the viability at 72 h, 5 µM in series [4] turned out to be 94.6%. The compound also gave an inhibition at 5 µM in the series with Hepatitis C virus [5] of 39.8%.
